Measurements taken from US10787432B2, “N-[(pyridyloxy)propanyl]benzamides” (Boehringer Ingelheim International GmbH, priority 2016, dated 2020).
Where two headings read alike, the source gives them in different places.

Legend:
human Orexin 1 receptor = molecular target: T1, human Orexin 1 receptor (Homo sapiens, UniProt O43613); assay: Assay A: In vitro testing of OX1R potency: OX1R IP1 (HTRF, CHO-K1/hOX1 cells, Orexin A as agonist); format: cell-based; settings: for Kb: read-out: OX1R Kb (Orexin A concentration used)
T1 construct: stably expressing the full-length human Orexin 1 receptor; expressed in transfected cells; host or cells: CHO-K1 (CHO-K1/hOX1), co-expressing aequorin
T1 sequence (O43613 1-425): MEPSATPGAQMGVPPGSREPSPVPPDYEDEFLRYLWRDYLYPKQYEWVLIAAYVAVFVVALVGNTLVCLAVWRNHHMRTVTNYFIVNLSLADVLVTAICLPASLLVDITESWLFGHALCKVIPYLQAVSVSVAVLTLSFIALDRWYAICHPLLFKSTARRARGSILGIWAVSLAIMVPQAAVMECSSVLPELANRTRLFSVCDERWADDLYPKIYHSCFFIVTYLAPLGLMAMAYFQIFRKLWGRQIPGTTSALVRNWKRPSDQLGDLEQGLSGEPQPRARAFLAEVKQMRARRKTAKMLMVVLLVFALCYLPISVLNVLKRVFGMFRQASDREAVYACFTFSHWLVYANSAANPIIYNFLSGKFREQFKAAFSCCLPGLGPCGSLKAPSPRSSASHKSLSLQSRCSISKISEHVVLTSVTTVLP

human orexin 2 receptor = molecular target: T2, human orexin 2 receptor (Homo sapiens, UniProt O43614); assay: Assay B: In vitro testing of OX2R potency: OX2R IP1 (HTRF, CHO-K1/hOX2 cells, Orexin A as agonist); format: cell-based; settings: Orexin A 0.5 nM
T2 construct: stably expressing the full-length human orexin 2 receptor; expressed in transfected cells; host or cells: CHO-K1 (CHO-K1/hOX2), co-expressing aequorin
T2 sequence (O43614 1-444): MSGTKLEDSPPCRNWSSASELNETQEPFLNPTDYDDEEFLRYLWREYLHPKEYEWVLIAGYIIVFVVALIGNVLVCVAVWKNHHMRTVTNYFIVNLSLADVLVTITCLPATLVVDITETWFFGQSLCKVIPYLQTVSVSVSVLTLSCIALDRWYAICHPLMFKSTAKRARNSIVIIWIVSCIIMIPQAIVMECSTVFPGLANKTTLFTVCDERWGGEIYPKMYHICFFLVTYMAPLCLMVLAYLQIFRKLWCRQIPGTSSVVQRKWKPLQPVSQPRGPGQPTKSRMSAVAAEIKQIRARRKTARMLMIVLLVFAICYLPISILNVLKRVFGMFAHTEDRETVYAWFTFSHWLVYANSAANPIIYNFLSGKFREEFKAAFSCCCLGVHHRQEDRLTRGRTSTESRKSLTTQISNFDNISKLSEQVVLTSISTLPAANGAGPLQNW
Excerpt: Activation of the orexin receptors expressed in cell lines results in an increase in intracellular IP3 concentration. IP1, a downstream metabolite of IP3, accumulates in cells following receptor activation and is stable in the presence of LiCl. Using Homogeneous Time-Resolved Fluorescence technology with Lumi4-Tb cryptate (commercially available from Cisbio Bioassay.) and a suitable fluorescence plate reader. […] Chem. Genomics 2009, 3, 22-32. This technique is used to characterize pharmacological modification of the orexin receptors.
B. In Vitro Testing of OX2R Potency: OX2R IP1
IP1 measurements are performed in CHO-K1 cells stably expressing the full-length human orexin 2 receptor and the aequorin photoprotein. Cells are cultivated in Ham's nutrient mixture F12 medium with 10% fetal calf serum, in a 37° C., 95% humidity and 5% CO2 incubator. The CHO-K1/hOX2 cell mass is expanded to larger cell numbers. The cells are obtained as frozen cells in cryo-vials and stored until use at −150° C. The viability of the cells after thawing is >90%. In preparation for the assay, 24 hours before the assay, the cells are thawed at 37° C. and immediately diluted with cell culture medium. After centrifugation, the cell pellet is resuspended in medium and then distributed into the assay plates with a density of 5000 cells/25 μL per well. The plates are incubated for one hour at room temperature to reduce edge effects before they are incubated for 24 hours at 37° C./5% CO2. Compounds are prepared by a 8-point serial dilution in DMSO and a final dilution step into assay buffer (HBSS with 20 mM HEPES, 0.1% BSA and 50 mM LiCl, pH 7.4) to ensure a final DMSO concentration of 1% in the assay.
On the day of the assay, cells in the plate are washed twice with 60 μL assay buffer (20 μL buffer remained in the wells after washing), followed by adding 5 μL per well of compounds diluted in assay buffer. After 15 minutes of incubation at room temperature 5 μL per well of Orexin A peptide (final concentration: 0.5 nM) dissolved in assay buffer is added to the assay plate. The assay plate is incubated for 60 minutes at 37° C. Then 5 μL per well of Anti-IP1-Cryptate Tb solution and 5 μL per well of IP1-d2 dilution are added to all well of the plate and the plate is incubated for a further 60 minutes light protected at room temperature. The emission at 615 nm and 665 nm (Excitation wavelength: 320 nm) are measured using an EnVision reader (PerkinElmer). The ratio between the emission at 665 nm and 615 is calculated by the reader.
8-point four parametric non-linear curve fitting and determination of IC50 values and Hill slopes is performed using a regular analysis software e.g. AssayExplorer (Accelrys). In order to establish an agonist concentration independent parameter, Kb values are calculated using the following equation: IC50/((2+(A/EC50)n)^1/n−1) (with A=concentration agonist, EC50=EC50 agonist, n=Hill slope agonist) (see P. Leff, I. G. Dougall, Trends Pharmacol. Sci. 1993, 14(4), 110-112).
Kb values from Assay A (OX1R) and Assay B (OX2R) can then provide a selectivity ratio which is independent of the agonist (Orexin A) concentration.

[1] = Assay C: Metabolic stability in human liver microsomes (Human MST); format: in vitro ADME; settings: pooled human liver microsomes, pH 7.6; human liver microsomes 1 mg/mL, compound 1 μM, 37° C., NADPH; read-out: Human MST t1/2
Procedure: C. Assessment of Metabolic Stability in Human Liver Microsomes (Human MST)
The metabolic stability of the compounds according to the invention may be investigated as follows:
The metabolic degradation of the test compound is assayed at 37° C. with pooled human liver microsomes. The final incubation volume of 100 μL per time point contains TRIS buffer pH 7.6 at room temperature (0.1 M), MgCl2 (5 mM), microsomal protein (1 mg/mL) and the test compound at a final concentration of 1 μM. Following a short pre-incubation period at 37° C., the reactions are initiated by addition of beta-nicotinamide adenine dinucleotide phosphate, reduced form (NADPH, 1 mM), and terminated by transferring an aliquot into solvent after different time points. After centrifugation (10000 g, 5 min), an aliquot of the supernatant is assayed by LC-MS/MS for the amount of parent compound. The half-life (t1/2) is determined by the slope of the semi-logarithmic plot of the concentration-time profile.

| Structure (SMILES) | OX2R Kb/OX1R Kb (human Orexin 1 receptor; OX1R Kb at 50 nM Orexin A) | Kb (human Orexin 1 receptor; Orexin A 50 nM) | Kb (human orexin 2 receptor) | half-life at 1 μM [1] | OX2R Kb/OX1R Kb (human Orexin 1 receptor; OX1R Kb at 0.5 nM Orexin A) | Kb (human Orexin 1 receptor; Orexin A 0.5 nM) |
| --- | --- | --- | --- | --- | --- | --- |
| CCN(C(=O)c1ccc(Cl)cc1-n1nccn1)[C@@H](C)COc1ccc(C(F)(F)F)cn1 [Example 26] | 400 | 0.055 nM | 22 nM | 15 min | – | – |
| CCN(C(=O)c1cccc(F)c1-n1nccn1)[C@@H](C)COc1ncc(C(F)(F)F)cc1F [Example 113] | – | – | 69 nM | 95 min | 173 | 0.4 nM |
| CCN(C(=O)c1cc(F)cc(F)c1-n1nccn1)[C@@H](C)COc1ccc(OC(F)(F)F)cn1 [Example 126] | 66 | 0.62 nM | 41 nM | 62 min | 71 | 0.58 nM |
| CCN(C(=O)c1cc(F)ccc1-c1ncccn1)[C@@H](C)COc1ccc(Br)cn1 [Example 120] | 358 | 0.12 nM | 43 nM | 76 min | 165 | 0.26 nM |
| CCN(C(=O)c1c(F)cccc1-c1ncccn1)[C@@H](C)COc1ccc(C(F)(F)F)cn1 [Example 116] | 205 | 0.22 nM | 45 nM | 33 min | 132 | 0.34 nM |
| CCN(C(=O)c1cccc(F)c1-n1nccn1)[C@@H](C)COc1ncc(Br)cc1F [Example 112] | 192 | 0.5 nM | 96 nM | 67 min | 168 | 0.57 nM |
| CCN(C(=O)c1cccc(Cl)c1-n1nccn1)[C@@H](C)COc1ccc(C(F)(F)F)cn1 [Example 90] | 520 | 0.025 nM | 13 nM | 44 min | – | – |
| CCN(C(=O)c1cccc(C)c1-c1nnc(C)o1)[C@@H](C)COc1ccc(Cl)cn1 [Example 39] | 152 | 0.54 nM | 82 nM | 23 min | 93 | 0.88 nM |
| CCN(C(=O)c1cccc(F)c1-c1nnc(C)o1)[C@@H](C)COc1ncc(C(F)(F)F)cc1F [Example 61] | – | – | 1480 nM | 26 min | 452 | 3.27 nM |
| CCN(C(=O)c1cc(F)cc(F)c1-n1nccn1)[C@@H](C)COc1ncc(C(F)(F)F)cc1F [Example 54] | 415 | 0.66 nM | 274 nM | 87 min | 277 | 0.99 nM |
| CCN(C(=O)c1ccc(C#N)cc1-n1nccn1)[C@@H](C)COc1ccc(C(F)(F)F)cn1 [Example 103] | – | – | 1170 nM | 58 min | 273 | 4.28 nM |
| CCN(C(=O)c1cc(F)ccc1-n1nccn1)[C@@H](C)COc1ccc(Cl)cn1 [Example 29] | 81 | 0.88 nM | 71 nM | 55 min | 71 | 1 nM |
| CCN(C(=O)c1cccc(Cl)c1-n1nccn1)[C@@H](C)COc1ncc(C(F)(F)F)cc1F [Example 49] | 333 | 0.066 nM | 22 nM | 81 min | – | – |
| CCN(C(=O)c1ccc(F)cc1-c1ncccn1)[C@@H](C)COc1ccc(Br)cn1 [Example 129] | 247 | 0.17 nM | 42 nM | 30 min | – | – |
| CCN(C(=O)c1ccc(OC)cc1-n1nccn1)[C@@H](C)COc1ncc(C(F)(F)F)cc1F [Example 131] | 900 | 0.5 nM | 450 nM | 11 min | 506 | 0.89 nM |
| CCN(C(=O)c1cc(OC)ccc1-n1nccn1)[C@@H](C)COc1ccc(C(F)(F)F)cn1 [Example 15] | 250 | 0.06 nM | 15 nM | 16 min | – | – |
| CCN(C(=O)c1cccc(F)c1-c1nnc(C)o1)[C@@H](C)COc1ccc(C(F)(F)F)cn1 [Example 18] | – | – | 218 nM | 74 min | 273 | 0.8 nM |
| CCN(C(=O)c1ccccc1-c1cnc(C)nc1)[C@@H](C)COc1ccc(C(F)(F)F)cn1 [Example 85] | – | – | 583 nM | 17 min | 68 | 8.6 nM |
| CCN(C(=O)c1ccccc1-c1ncccn1)[C@@H](C)COc1ccc(C(F)(F)F)cn1 [Example 102] | 1080 | 0.025 nM | 27 nM | 36 min | – | – |
| CCN(C(=O)c1ccccc1-c1nnc(C)o1)[C@@H](C)COc1ncc(C(F)(F)F)cc1F [Example 68] | – | – | 1000 nM | 53 min | 527 | 1.9 nM |
| CCN(C(=O)c1ccc(F)c(F)c1-n1nccn1)[C@@H](C)COc1ccc(C(F)(F)F)cn1 [Example 91] | 340 | 0.2 nM | 68 nM | 18 min | – | – |
| CC[C@@H](CNc1ccc(C(F)(F)F)cn1)N(C)C(=O)c1cc(Cl)ccc1-n1nccn1 [Ex 42 in WO2016/034882, reference compound] | – | – | 229 nM | 7 min | – | – |
| CC[C@@H](CNc1ccc(Cl)cn1)N(C)C(=O)c1cc(C)ccc1-n1nccn1 [Ex 1 in WO2016/034882, reference compound] | – | – | 36 nM | 5 min | – | – |
